Our source for the minimal effective concentration and DiMf/DiL4 values is US11771738B2 (Zoetis Services LLC, priority 2018, dated 2023).

Where two headings read alike, the source gives them in different places.

Type in all cases: cell-based
The subject of experiment [1] is microfilariae of Dirofilaria immitis. In words: Dirofilaria immitis, Microfilaria (DiMf) In Vitro Assay. Particulars: Dirofilaria immitis, 72 h, read-out: DiMf MED, Minimum Effective Dose, D. immitis microfilariae motility, in vitro.
Another experiment has as its system D. immitis L4 larvae. Kind of experiment: Dirofilaria immitis, L4 Stage (DiL4) In Vitro Assay. Particulars: for minimal effective concentration: Dirofilaria immitis, 72 h, read-out: DiL4 MED, Minimum Effective Dose, D. immitis L4 larvae motility, in vitro; for DiMf/DiL4: larval stage selectivity, ratio of DiMf MED to DiL4 MED.
Experiment [2] relates to third stage larvae of Haemonchus contortus. Kind of experiment: Haemonchus contortus, Larvae Stage 3 (HcL3) In Vitro Assay. As to conditions: Haemonchus contortus, 96 h.
The mark [3] stands for this setting: read-out: HcL3 MED, Minimum Effective Dose, H. contortus third stage larvae, approximately 96 hours.
Where [4] appears, read: read-out: HcL3 MED, Haemonchus contortus third stage larvae in vitro, class mark appended to the Ex # in Table 3.
Setting [5] is: read-out: HcL3 MED, approximately 96 hours incubation, multiple-resistant field isolate.

With `COc1cc(C)c(Cc2ccc(C[C@H]3OC(=O)[C@H](CC(C)C)N(C)C(=O)[C@@H](C)OC(=O)[C@H](CC(C)C)N(C)C(=O)[C@@H](Cc4ccc(Cc5cnc(OC)cc5C)cc4)OC(=O)[C@H](CC(C)C)N(C)C(=O)[C@@H](C)OC(=O)[C@H](CC(C)C)N(C)C3=O)cc2)cn1` [Example 3-133, (3S,6R,9S,12R,15S,18R,21S,24R)-3,9,15,21-tetraisobutyl-6,18-bis(4-((6-methoxy-4-methylpyridin-3-yl)methyl)benzyl)-4,10,12,16,22,24-hexamethyl-1,7,13,19-tetraoxa-4,10,16,22-tetraazacyclotetracosan-2,5,8,11,14,17,20,23-octaone], the minimal effective concentration in experiment [1] worked out at 0.02 µM; in the experiment on D. immitis L4 larvae it was 0.0003 µM; in experiment [2] (setting [3]), 57 µM. In addition, in the experiment on D. immitis L4 larvae, the DiMf/DiL4 was found to be 66.7.
Take `Cc1ccsc1Cc1ccc(C[C@H]2OC(=O)[C@H](CC(C)C)N(C)C(=O)[C@@H](C)OC(=O)[C@H](CC(C)C)N(C)C(=O)[C@@H](Cc3ccc(Cc4sccc4C)cc3)OC(=O)[C@H](CC(C)C)N(C)C(=O)[C@@H](C)OC(=O)[C@H](CC(C)C)N(C)C2=O)cc1` [Example 3-44, (3S,6R,9S,12R,15S,18R,21S,24R)-3,9,15,21-tetraisobutyl-4,6,10,16,18,22-hexamethyl-12,24-bis(4-((3-methylthiophen-2-yl)methyl)benzyl)-1,7,13,19-tetraoxa-4,10,16,22-tetraazacyclotetracosan-2,5,8,11,14,17,20,23-octaone]: the minimal effective concentration in experiment [1] was 0.1 µM; with D. immitis L4 larvae, 0.0001 µM; in experiment [2] (setting [4]), 1 to 3.3 µM; in experiment [2] (setting [3]) it was 1.8 µM. For the same molecule, the DiMf/DiL4 with D. immitis L4 larvae worked out at 1000.
For `COc1cnc(C(C)(F)c2ccc(C[C@H]3OC(=O)[C@H](CC(C)C)N(C)C(=O)[C@@H](C)OC(=O)[C@H](CC(C)C)N(C)C(=O)[C@@H](Cc4ccc(C(C)(F)c5cnc(OC)cn5)cc4)OC(=O)[C@H](CC(C)C)N(C)C(=O)[C@@H](C)OC(=O)[C@H](CC(C)C)N(C)C3=O)cc2)cn1` (stereo partly drawn) [Example 3-252, (3S,6R,9S,12R,15S,18R,21S,24R)-6,18-bis(4-(1-fluoro-1-(5-methoxypyrazin-2-yl)ethyl)benzyl)-3,9,15,21-tetraisobutyl-4,10,12,16,22,24-hexamethyl-1,7,13,19-tetraoxa-4,10,16,22-tetraazacyclotetracosan-2,5,8,11,14,17,20,23-octaone], the minimal effective concentration in experiment [1] was 0.02 µM; with D. immitis L4 larvae, 0.0007 µM; in experiment [2] (setting [3]), > 42 µM. In addition, the DiMf/DiL4 in the experiment on D. immitis L4 larvae was determined as 28.6.
For `CC(C)C[C@H]1C(=O)O[C@H](Cc2ccc(Cc3ncco3)cc2)C(=O)N(C)[C@@H](CC(C)C)C(=O)O[C@H](C)C(=O)N(C)[C@@H](CC(C)C)C(=O)O[C@H](Cc2ccc(Cc3ncco3)cc2)C(=O)N(C)[C@@H](CC(C)C)C(=O)O[C@H](C)C(=O)N1C` [Example 3-18, (3S,6R,9S,12R,15S,18R,21S,24R)-3,9,15,21-tetraisobutyl-4,6,10,16,18,22-hexamethyl-12,24-bis(4-(oxazol-2-ylmethyl)benzyl)-1,7,13,19-tetraoxa-4,10,16,22-tetraazacyclotetracosan-2,5,8,11,14,17,20,23-octaone], the minimal effective concentration in experiment [1] is 0.0002 µM; with D. immitis L4 larvae, 0.0001 µM; in experiment [2] (setting [4]), < 1 µM; in experiment [2] (setting [3]), 1 µM; in experiment [2] (setting [5]), ≤ 1 µM. Besides, in the experiment on D. immitis L4 larvae, the DiMf/DiL4 was 2.
Regarding `CC(C)C[C@H]1C(=O)O[C@H](Cc2ccc(Cc3cnco3)cc2)C(=O)N(C)[C@@H](CC(C)C)C(=O)O[C@H](C)C(=O)N(C)[C@@H](CC(C)C)C(=O)O[C@H](Cc2ccc(Cc3cnco3)cc2)C(=O)N(C)[C@@H](CC(C)C)C(=O)O[C@H](C)C(=O)N1C` [Example 3-148, (3S,6R,9S,12R,15S,18R,21S,24R)-3,9,15,21-tetraisobutyl-4,6,10,16,18,22-hexamethyl-12,24-bis(4-(oxazol-5-ylmethyl)benzyl)-1,7,13,19-tetraoxa-4,10,16,22-tetraazacyclotetracosan-2,5,8,11,14,17,20,23-octaone], the minimal effective concentration is 0.001 µM in experiment [1], 0.0003 µM with D. immitis L4 larvae, 1 to 3.3 µM in experiment [2] (setting [4]) and 3 µM in experiment [2] (setting [3]). For the same molecule, the DiMf/DiL4 in the experiment with D. immitis L4 larvae came to 3.3.
Turning to `CCc1ncncc1Cc1ccc(C[C@H]2OC(=O)[C@H](CC(C)C)N(C)C(=O)[C@@H](C)OC(=O)[C@H](CC(C)C)N(C)C(=O)[C@@H](Cc3ccc(Cc4cncnc4CC)cc3)OC(=O)[C@H](CC(C)C)N(C)C(=O)[C@@H](C)OC(=O)[C@H](CC(C)C)N(C)C2=O)cc1` [Example 3-310, (3S,6R,9S,12R,15S,18R,21S,24R)-6,18-bis(4-((4-ethylpyrimidin-5-yl)methyl)benzyl)-3,9,15,21-tetraisobutyl-4,10,12,16,22,24-hexamethyl-1,7,13,19-tetraoxa-4,10,16,22-tetraazacyclotetracosan-2,5,8,11,14,17,20,23-octaone], the minimal effective concentration in experiment [1] was 0.0003 µM; with D. immitis L4 larvae, 0.001 µM; in experiment [2] (setting [4]), < 1 µM; in experiment [2] (setting [3]), 1 µM; in experiment [2] (setting [5]) it was ≤ 1 µM. In addition, the DiMf/DiL4 in the experiment on D. immitis L4 larvae worked out at 0.3.
Regarding `CC(C)C[C@H]1C(=O)O[C@H](Cc2ccc(Cc3cccs3)cc2)C(=O)N(C)[C@@H](CC(C)C)C(=O)O[C@H](C)C(=O)N(C)[C@@H](CC(C)C)C(=O)O[C@H](Cc2ccc(Cc3cccs3)cc2)C(=O)N(C)[C@@H](CC(C)C)C(=O)O[C@H](C)C(=O)N1C` [Example 3-4, (3S,6R,9S,12R,15S,18R,21S,24R)-3,9,15,21-tetraisobutyl-4,6,10,16,18,22-hexamethyl-12,24-bis(4-(thiophen-2-ylmethyl)benzyl)-1,7,13,19-tetraoxa-4,10,16,22-tetraazacyclotetracosan-2,5,8,11,14,17,20,23-octaone], the minimal effective concentration in experiment [1] was 0.02 µM; in the experiment with D. immitis L4 larvae, 0.0001 µM; in experiment [2] (setting [4]), < 1 µM; in experiment [2] (setting [3]), 0.5 µM; in experiment [2] (setting [5]), ≤ 1 µM. Moreover, in the experiment on D. immitis L4 larvae, the DiMf/DiL4 was 200.
With `CC(C)C[C@H]1C(=O)O[C@H](Cc2ccc(Cc3ccnc(N4CCOCC4)c3)cc2)C(=O)N(C)[C@@H](CC(C)C)C(=O)O[C@H](C)C(=O)N(C)[C@@H](CC(C)C)C(=O)O[C@H](Cc2ccc(Cc3ccnc(N4CCOCC4)c3)cc2)C(=O)N(C)[C@@H](CC(C)C)C(=O)O[C@H](C)C(=O)N1C` [Example 3-292, (3S,6R,9S,12R,15S,18R,21S,24R)-3,9,15,21-tetraisobutyl-4,6,10,16,18,22-hexamethyl-12,24-bis(4-((2-morpholinopyridin-4-yl)methyl)benzyl)-1,7,13,19-tetraoxa-4,10,16,22-tetraazacyclotetracosan-2,5,8,11,14,17,20,23-octaone], the minimal effective concentration in experiment [1] was 0.001 µM; with D. immitis L4 larvae, 0.0003 µM; in experiment [2] (setting [4]), 1 to 3.3 µM; in experiment [2] (setting [3]) it was 1.8 µM. Further, the DiMf/DiL4 with D. immitis L4 larvae was 3.3.
As to `CC(C)C[C@H]1C(=O)O[C@H](Cc2ccc(Cc3ccnn3C3CC3)cc2)C(=O)N(C)[C@@H](CC(C)C)C(=O)O[C@H](C)C(=O)N(C)[C@@H](CC(C)C)C(=O)O[C@H](Cc2ccc(Cc3ccnn3C3CC3)cc2)C(=O)N(C)[C@@H](CC(C)C)C(=O)O[C@H](C)C(=O)N1C` [Example 3-268, (3S,6R,9S,12R,15S,18R,21S,24R)-6,18-bis(4-((1-cyclopropyl-1H-pyrazol-5-yl)methyl)benzyl)-3,9,15,21-tetraisobutyl-4,10,12,16,22,24-hexamethyl-1,7,13,19-tetraoxa-4,10,16,22-tetraazacyclotetracosan-2,5,8,11,14,17,20,23-octaone], the minimal effective concentration in experiment [1] is 0.002 µM; in the experiment on D. immitis L4 larvae it was 0.0005 µM; in experiment [2] (setting [4]), < 1 µM; in experiment [2] (setting [3]), 1 µM; in experiment [2] (setting [5]), ≤ 1 µM. Moreover, in the experiment with D. immitis L4 larvae, the DiMf/DiL4 came out at 4.
`COc1ncc(Cc2ccc(C[C@H]3OC(=O)[C@H](CC(C)C)N(C)C(=O)[C@@H](C)OC(=O)[C@H](CC(C)C)N(C)C(=O)[C@@H](Cc4ccc(Cc5cnc(OC)c(F)c5)cc4)OC(=O)[C@H](CC(C)C)N(C)C(=O)[C@@H](C)OC(=O)[C@H](CC(C)C)N(C)C3=O)cc2)cc1F` [Example 3-118, (3S,6R,9S,12R,15S,18R,21S,24R)-6,18-bis(4-((5-fluoro-6-methoxypyridin-3-yl)methyl)benzyl)-3,9,15,21-tetraisobutyl-4,10,12,16,22,24-hexamethyl-1,7,13,19-tetraoxa-4,10,16,22-tetraazacyclotetracosan-2,5,8,11,14,17,20,23-octaone]: the minimal effective concentration is 0.1 µM in experiment [1], 0.001 µM in the experiment on D. immitis L4 larvae and > 100 µM in experiment [2] (setting [3]). Further, in the experiment with D. immitis L4 larvae, the DiMf/DiL4 is recorded as 100.
Turning to `CC(C)C[C@H]1C(=O)O[C@H](Cc2ccc(Cc3sccc3Cl)cc2)C(=O)N(C)[C@@H](CC(C)C)C(=O)O[C@H](C)C(=O)N(C)[C@@H](CC(C)C)C(=O)O[C@H](Cc2ccc(Cc3sccc3Cl)cc2)C(=O)N(C)[C@@H](CC(C)C)C(=O)O[C@H](C)C(=O)N1C` [Example 3-87, (3S,6R,9S,12R,15S,18R,21S,24R)-6,18-bis(4-((3-chlorothiophen-2-yl)methyl)benzyl)-3,9,15,21-tetraisobutyl-4,10,12,16,22,24-hexamethyl-1,7,13,19-tetraoxa-4,10,16,22-tetraazacyclotetracosan-2,5,8,11,14,17,20,23-octaone], the minimal effective concentration in experiment [1] was 0.1 µM; in the experiment on D. immitis L4 larvae, 0.0003 µM; in experiment [2] (setting [4]), < 1 µM; in experiment [2] (setting [3]), 0.3 µM; in experiment [2] (setting [5]), ≤ 1 µM. Besides, the DiMf/DiL4 in the experiment on D. immitis L4 larvae worked out at 333.
